Results: PubChem BioAssay (NCI)
Several values for one entry are separate records, joined by “and”; a condition that tells them apart may be missing. Identical values can stand only once.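 Values below derive from 48-hour exposures of cells grown in 96-well plates, with endpoints linearly interpolated between the two concentrations bracketing the appropriate inhibition level. Abbreviation: GI50, concentration required for 50% inhibition of growth. TGI marks complete inhibition of growth.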

Each molecule was assayed on HCC-2998 colon (assay: inhibition of tumour cell growth, NCI panel, 48 h).

Question: With `Cc1ccc(NC(=O)CC2Sc3ccccc3NC2=O)cc1C` (stereo not given) as the molecule, how does the TGI read?
Answer: > 100 µM

Question: For `N[C@@H](CCC(=O)NCP(=O)(O)O)C(=O)O`, which TGI is on record?
Answer: > 100 µM

Question: `CCOP(=O)(OCC)C(F)(F)c1ccc(CC(NC(=O)OC(C)(C)C)C(=O)O)cc1` (stereo not given) was tested. Which TGI did it give?
Answer: > 10 µM

Question: How did the TGI turn out when `NC(=O)C(=Cn1c(=S)[nH]c2ccc([N+](=O)[O-])cc21)C(N)=O` was run?
Answer: > 100 µM

Question: Which TGI does the source give for `O=C(C1OC1c1ccc(Br)cc1O)C12CC3CC(CC(C3)C1)C2` (stereo not given) here?
Answer: 47.6 µM

Question: Which TGI does the source give for `O=C1C=C[C@@H](COC2OC(CO)C(O)C(O)C2O)O1` (stereo not given in full) here?
Answer: > 100 µM

Question: `c1ccc2c3[nH]c(c2c1)=Nc1ccc(cc1)-c1nc2cc(ccc2o1)N=c1[nH]c(c2ccccc12)=Nc1ccc2nc(oc2c1)-c1ccc(cc1)N=3` was tested. Which TGI did it give?
Answer: > 100 µM

Question: How did the TGI turn out when `O=C(Cc1ccc(O)c(O)c1)NCc1c[nH]c2ccccc12` was run?
Answer: > 100 µM

Question: How did the TGI turn out when `O=C(NCc1ccccc1)c1n[nH][nH]c1=O` was run?
Answer: > 100 µM

What follows are molecules tested on K-562 leukemia (assay: inhibition of tumour cell growth, NCI panel, 48 h).

Question: For `COc1cccc(Nc2nc(-c3cccs3)nc3cc(OC)c(OC)cc23)c1`, which TGI is on record?
Answer: > 100 µM

Question: With `COc1ccc2[nH]cc(/C=C(/C)c3ccncc3)c2c1` as the molecule, how does the TGI read?
Answer: > 100 µM

Question: Which TGI does the source give for `C=CC1(CC/C(=C\[N+](=O)[O-])c2ccc(OC)c(OC)c2)OCC(C)(C)CO1` here?
Answer: > 100 µM

Question: How did the TGI turn out when `Cc1cc(C)nc(NS(=O)(=O)c2ccc(NC(=O)c3ccc4nc5ccccc5c(Nc5ccc(S(N)(=O)=O)cc5)c4c3)cc2)n1` was run?
Answer: > 100 µM

Question: For `Nc1c(-c2ccc(Cl)c(Cl)c2)c2ccc([N+](=O)[O-])cc2c(=O)n1-c1nc2ccccc2s1`, which TGI is on record?
Answer: > 100 µM

Question: How did the TGI turn out when `COC(=O)[C@@H](O)[C@](O)(CCC(C)C)C(=O)O[C@@H]1C(OC)=C[C@]23CCCN2CCc2cc4c(cc2[C@H]13)OCO4` was run?
Answer: 23 µM

Question: How did the TGI turn out when `COC(=O)c1c(C)nc2c1cc(O)c1[nH]c(C)c(C)nc12` was run?
Answer: > 100 µM

Question: With `Cn1c2ccc3cc2c(=S)c2cc(ccc21)OCCOCCOCCOCCOCCOCCO3` as the molecule, how does the TGI read?
Answer: > 10 µM

Question: With `COc1cc(S(=O)(=O)Nc2nc(-c3ccc(N4C(=O)C(CC(=O)O)SC4c4cccs4)cc3)cs2)ccc1Cl` (stereo not given) as the molecule, how does the TGI read?
Answer: > 100 µM

Question: For `CC(=O)N1C(C(=O)NC2CCCCC2)CSC1c1ccccc1` (stereo not given), which TGI is on record?
Answer: > 100 µM

Question: Which TGI does the source give for `CC1(C)O[C@H]2OC(CO[Si](C)(C)C(C)(C)C)C(N=[N+]=[N-])[C@H]2O1` (stereo not given in full) here?
Answer: 29.1 µM

Question: Which TGI does the source give for `O=[N+]([O-])c1ccc(Cl)cc1N/N=C/c1ccnc2ccccc12` here?
Answer: > 100 µM

Question: How did the TGI turn out when `COc1ccc2cc1Oc1ccc(cc1)C[C@H]1c3cc(c(OC)cc3CCN1C)Oc1c(O)c(OC)cc3c1[C@H](C2)N(C)CC3` was run?
Answer: 83.5 µM

Question: For `C#CCn1c(=O)c2ccccc2n(CC#C)c1=O`, which TGI is on record?
Answer: > 10 µM

Question: With `O=C1CCC2(c3ccc(Cl)cc3)Nc3ccncc3N12` (stereo not given) as the molecule, how does the TGI read?
Answer: > 10 µM

Question: `Oc1ccc(Cc2cc(Cc3ccc(O)cc3)cc(Cc3ccc(O)cc3)c2)cc1` was tested. Which TGI did it give?
Answer: > 50 µM

Question: `Nc1ncnc2c1[nH]c(=O)n2-c1ccccc1` was tested. Which TGI did it give?
Answer: > 100 µM

Question: How did the TGI turn out when `CC1CN(C)c2ccccc2N=C1NN` (stereo not given) was run?
Answer: > 100 µM

Question: With `O=C(c1ccccn1)C1(N2CCCCC2)CCCCC1` as the molecule, how does the TGI read?
Answer: > 100 µM

Question: For `Cc1ccc(NC(=O)CC2Sc3ccccc3NC2=O)cc1C` (stereo not given), which TGI is on record?
Answer: > 100 µM

Question: `N[C@@H](CCC(=O)NCP(=O)(O)O)C(=O)O` was tested. Which TGI did it give?
Answer: > 100 µM

Question: With `CCOP(=O)(OCC)C(F)(F)c1ccc(CC(NC(=O)OC(C)(C)C)C(=O)O)cc1` (stereo not given) as the molecule, how does the TGI read?
Answer: > 10 µM

Question: `O=C(C1OC1c1ccc(Br)cc1O)C12CC3CC(CC(C3)C1)C2` (stereo not given) was tested. Which TGI did it give?
Answer: 44.8 µM

Question: For `O=C1C=C[C@@H](COC2OC(CO)C(O)C(O)C2O)O1` (stereo not given in full), which TGI is on record?
Answer: 23.6 µM and > 100 µM

Question: Which TGI does the source give for `c1ccc2c3[nH]c(c2c1)=Nc1ccc(cc1)-c1nc2cc(ccc2o1)N=c1[nH]c(c2ccccc12)=Nc1ccc2nc(oc2c1)-c1ccc(cc1)N=3` here?
Answer: > 100 µM

Question: Which TGI does the source give for `S=C(N/N=C(/c1ccccc1)c1ccccn1)N(Cc1ccccn1)Cc1ccccn1` here?
Answer: > 100 µM

Question: With `O=C(OCc1ccccc1)N1CCNCCN(C(=O)OCc2ccccc2)CCNCC1` as the molecule, how does the TGI read?
Answer: > 100 µM

Question: `O=C(Cc1ccc(O)c(O)c1)NCc1c[nH]c2ccccc12` was tested. Which TGI did it give?
Answer: > 100 µM

Question: For `O=C(NCc1ccccc1)c1n[nH][nH]c1=O`, which TGI is on record?
Answer: > 100 µM

These molecules were tested on MCF7 breast (assay: inhibition of tumour cell growth, NCI panel, 48 h).

Question: Which TGI does the source give for `COc1cccc(Nc2nc(-c3cccs3)nc3cc(OC)c(OC)cc23)c1` here?
Answer: 49.2 µM

Question: How did the TGI turn out when `Nn1c(-c2ccccc2)n[nH]c1=O` was run?
Answer: > 100 µM

Question: How did the GI50 turn out when `COc1ccc2[nH]cc(/C=C(/C)c3ccncc3)c2c1` was run?
Answer: 0.996 µM

Question: What about the TGI of the same molecule?
Answer: > 100 µM

Question: `C=CC1(CC/C(=C\[N+](=O)[O-])c2ccc(OC)c(OC)c2)OCC(C)(C)CO1` was tested. Which TGI did it give?
Answer: > 100 µM

Question: For `Cc1cc(C)nc(NS(=O)(=O)c2ccc(NC(=O)c3ccc4nc5ccccc5c(Nc5ccc(S(N)(=O)=O)cc5)c4c3)cc2)n1`, which TGI is on record?
Answer: > 100 µM

Question: With `Nc1c(-c2ccc(Cl)c(Cl)c2)c2ccc([N+](=O)[O-])cc2c(=O)n1-c1nc2ccccc2s1` as the molecule, how does the TGI read?
Answer: 21.1 µM

Question: For `CC1(C(=O)O)CCC2(C)CCC3(C)C(=CC(=O)C4C5(C)CCC(O)C(C)(C)C5CCC43C)C2C1` (stereo not given), which TGI is on record?
Answer: > 100 µM

Question: Which TGI does the source give for `COC(=O)[C@@H](O)[C@](O)(CCC(C)C)C(=O)O[C@@H]1C(OC)=C[C@]23CCCN2CCc2cc4c(cc2[C@H]13)OCO4` here?
Answer: 2.18 µM

Question: How did the TGI turn out when `COC(=O)c1c(C)nc2c1cc(O)c1[nH]c(C)c(C)nc12` was run?
Answer: > 100 µM

Question: `Cn1c2ccc3cc2c(=S)c2cc(ccc21)OCCOCCOCCOCCOCCOCCO3` was tested. Which TGI did it give?
Answer: > 10 µM

Question: With `COc1cc(S(=O)(=O)Nc2nc(-c3ccc(N4C(=O)C(CC(=O)O)SC4c4cccs4)cc3)cs2)ccc1Cl` (stereo not given) as the molecule, how does the TGI read?
Answer: 65.8 µM

Question: How did the TGI turn out when `CC(=O)N1C(C(=O)NC2CCCCC2)CSC1c1ccccc1` (stereo not given) was run?
Answer: > 100 µM

Question: How did the TGI turn out when `CC1(C)O[C@H]2OC(CO[Si](C)(C)C(C)(C)C)C(N=[N+]=[N-])[C@H]2O1` (stereo not given in full) was run?
Answer: 36.8 µM

Question: For `O=[N+]([O-])c1ccc(Cl)cc1N/N=C/c1ccnc2ccccc12`, which TGI is on record?
Answer: > 100 µM

Question: For `Oc1[nH]c2ccccc2c1N=Nc1nc(-c2ccc(Br)cc2)cs1`, which TGI is on record?
Answer: > 100 µM

Question: How did the TGI turn out when `COc1ccc2cc1Oc1ccc(cc1)C[C@H]1c3cc(c(OC)cc3CCN1C)Oc1c(O)c(OC)cc3c1[C@H](C2)N(C)CC3` was run?
Answer: 51.5 µM

Question: `C#CCn1c(=O)c2ccccc2n(CC#C)c1=O` was tested. Which TGI did it give?
Answer: > 10 µM

Question: For `Oc1ccc(Cc2cc(Cc3ccc(O)cc3)cc(Cc3ccc(O)cc3)c2)cc1`, which TGI is on record?
Answer: > 50 µM

Question: With `Nc1ncnc2c1[nH]c(=O)n2-c1ccccc1` as the molecule, how does the TGI read?
Answer: > 100 µM

Question: Which TGI does the source give for `O=C(c1ccccn1)C1(N2CCCCC2)CCCCC1` here?
Answer: > 100 µM

Question: How did the GI50 turn out when `COc1ccc(CN2C(=O)/C(=C\c3cc(OC)c(OC)c(OC)c3)c3ccccc32)cc1` was run?
Answer: 2.86 µM

Question: What about the TGI of the same molecule?
Answer: 15.9 µM

Question: For `N[C@@H](CCC(=O)NCP(=O)(O)O)C(=O)O`, which TGI is on record?
Answer: > 100 µM

Question: How did the TGI turn out when `CCOP(=O)(OCC)C(F)(F)c1ccc(CC(NC(=O)OC(C)(C)C)C(=O)O)cc1` (stereo not given) was run?
Answer: > 10 µM

Question: `O=C(C1OC1c1ccc(Br)cc1O)C12CC3CC(CC(C3)C1)C2` (stereo not given) was tested. Which TGI did it give?
Answer: > 100 µM

Question: How did the GI50 turn out when `O=C1C=C[C@@H](COC2OC(CO)C(O)C(O)C2O)O1` (stereo not given in full) was run?
Answer: 1.24 µM

Question: What about the TGI of the same molecule?
Answer: 3.81 µM and 19.6 µM

Question: Which TGI does the source give for `c1ccc2c3[nH]c(c2c1)=Nc1ccc(cc1)-c1nc2cc(ccc2o1)N=c1[nH]c(c2ccccc12)=Nc1ccc2nc(oc2c1)-c1ccc(cc1)N=3` here?
Answer: > 100 µM

Question: With `S=C(N/N=C(/c1ccccc1)c1ccccn1)N(Cc1ccccn1)Cc1ccccn1` as the molecule, how does the TGI read?
Answer: 5.02 µM

Question: For `O=C(OCc1ccccc1)N1CCNCCN(C(=O)OCc2ccccc2)CCNCC1`, which TGI is on record?
Answer: 38.8 µM

Question: How did the TGI turn out when `O=C(Cc1ccc(O)c(O)c1)NCc1c[nH]c2ccccc12` was run?
Answer: > 100 µM

Question: How did the TGI turn out when `O=C(NCc1ccccc1)c1n[nH][nH]c1=O` was run?
Answer: > 100 µM

The molecules below were run on MDA-MB-231 breast (assay: inhibition of tumour cell growth, NCI panel, 48 h).

Question: With `COc1cccc(Nc2nc(-c3cccs3)nc3cc(OC)c(OC)cc23)c1` as the molecule, how does the TGI read?
Answer: 53.8 µM

Question: Which TGI does the source give for `Nn1c(-c2ccccc2)n[nH]c1=O` here?
Answer: > 100 µM

Question: How did the TGI turn out when `C=CC1(CC/C(=C\[N+](=O)[O-])c2ccc(OC)c(OC)c2)OCC(C)(C)CO1` was run?
Answer: 75.8 µM

Question: `Cc1cc(C)nc(NS(=O)(=O)c2ccc(NC(=O)c3ccc4nc5ccccc5c(Nc5ccc(S(N)(=O)=O)cc5)c4c3)cc2)n1` was tested. Which TGI did it give?
Answer: > 100 µM
